What is called IC50 is the concentration at which inhibition is half-maximal. The EC50 is the concentration that produces a half-maximal response.

The values that follow come from patent US7294637B2 (Sepracor, Inc., priority 2000, dated 2007).

Data set [1] deals with dopamine transporter (Homo sapiens, UniProt Q01959). The data set is described as follows: DA uptake: displacement of dopamine ligands in vitro (methods of Gu et al.). To be noted: DA Uptake, Uptake Profile (IC50, nM), displacement of dopamine ligands in vitro.
Data set [2] concerns mouse. Description: Acute toxicity assessment, maximum tolerated dose i.v., mouse. The format is in vivo. To be noted: mice. The procedure: (§1) An in vivo evaluation was carried out to determine the maximum tolerated dose of numerous test compounds in two animal species (mouse and rat). The compounds were administered i.v. and the animals were then observed for 72 h. Compounds 114, 115, 113, 110, 124, 125, 129, and 130 were solubilized in 5% dextrose (w/v)/polyethylene glycol 400 (4:1 v/v). Compounds 126, 127, 131, and 132 were solubilized in 10% hydroxypropyl-β-cyclodextrin (w/v).

The subject of data set [3] is rats. The class given is in vivo, rat. The procedure: The animals were preconditioned in a pretest session, where the rats were individually forced to swim inside a vertical plexiglass cylinder containing water maintained at 19-20° C. […] Twenty four hours later, the compounds were administered intraperitoneal to the animals. One hour after administration of the test compound, animals were put back into the cylinder containing water. The total duration of immobility was measured during the last 4 minutes of a 6 minute test.
(§2) The results are expressed as the percentage of variation of the total duration of immobility calculated from the mean value of the vehicle-treated group (% variation=[(immobility duration of vehicle-immobility duration of test compound)/(immobility duration of vehicle)]×100%).

The target in data set [4] is T1, norepinephrine transporter (Homo sapiens, UniProt P23975). The data set is described as follows: NE uptake: displacement of norephinephrine ligands in vitro (methods of Galli et al.). The format is binding. The note with it: NE Uptake, Uptake Profile (IC50, nM).
For data set [5], the target named is T2, serotonin transporter (Homo sapiens, UniProt P31645). Description: 5-HT uptake: displacement of serotonin ligands in vitro (methods of Gu et al.). The note with it: displacement of serotonin ligands in vitro; read-out: 5-HT Uptake, Uptake Profile (IC50). The format is binding.
For data set [6], the system named is rats. The data set is described as follows: Behavioral despair assay in rats, 3 i.p. injections (Example 143). The class given is in vivo, rat. The note with it: for % variation of the total duration of immobility: 3 i.p. injections 24 h, 5 h and 1 h before test.
Excerpt: The objective of this study was to assess the antidepressant effects of test compounds 124, 125, 126, and 127 in the behavioral despair assay in rats according to the methods described by Porsolt R. D., Anton G., Blavet N., Jalfre M., Behavioural despair in rats: a new model sensitive to antidepressant treatment, Eur. J. Pharmacol., 1978, 47, 379-391. The animals were preconditioned in a pretest session, where the rats were individually forced to swim inside a vertical plexiglass cylinder containing water maintained at 19-20° C. After 15 minutes in the water, they were allowed to dry for 15 minutes in a heated enclosure. Twenty four hours later, they were replaced in the cylinder and the total duration of immobility was measured during a 5 minute test (test session). The test compounds and vehicle were administered as a series of 3 intraperitoneal injections 24 h, 5 h and 1 h before the 5 minute test on the second day.
as §2

Data set [7] deals with T2, serotonin transporter. Description: Functional activity, serotonin uptake inhibition in human HEK-293 cell lines. The format is cell-based. More on the design: expressed in transfected cells; host or cells: HEK-293. To be noted: human HEK-293 cell lines; read-out: 5-HT Uptake, Functional Assays (antagonism, EC50).
In data set [8] the test system is rat. Description: Acute toxicity assessment, maximum tolerated dose i.v., rat. The note with it: rats. The format is in vivo. The protocol: as §1
In data set [9] the target is T1, norepinephrine transporter. The data set is described as follows: Functional activity, norephinephrine uptake inhibition in MDCK cell lines. The class given is cell-based.
Data set [10] concerns the target DAT (Homo sapiens, UniProt Q01959). The data set is described as follows: cell-based. Further details: expressed in transfected cells. The note with it: hDAT cell line; read-out: DA Uptake, Functional Assays (antagonism, EC50).

Where two headings read alike, the source gives them in different places.

T1 sequence (P23975 whole entry): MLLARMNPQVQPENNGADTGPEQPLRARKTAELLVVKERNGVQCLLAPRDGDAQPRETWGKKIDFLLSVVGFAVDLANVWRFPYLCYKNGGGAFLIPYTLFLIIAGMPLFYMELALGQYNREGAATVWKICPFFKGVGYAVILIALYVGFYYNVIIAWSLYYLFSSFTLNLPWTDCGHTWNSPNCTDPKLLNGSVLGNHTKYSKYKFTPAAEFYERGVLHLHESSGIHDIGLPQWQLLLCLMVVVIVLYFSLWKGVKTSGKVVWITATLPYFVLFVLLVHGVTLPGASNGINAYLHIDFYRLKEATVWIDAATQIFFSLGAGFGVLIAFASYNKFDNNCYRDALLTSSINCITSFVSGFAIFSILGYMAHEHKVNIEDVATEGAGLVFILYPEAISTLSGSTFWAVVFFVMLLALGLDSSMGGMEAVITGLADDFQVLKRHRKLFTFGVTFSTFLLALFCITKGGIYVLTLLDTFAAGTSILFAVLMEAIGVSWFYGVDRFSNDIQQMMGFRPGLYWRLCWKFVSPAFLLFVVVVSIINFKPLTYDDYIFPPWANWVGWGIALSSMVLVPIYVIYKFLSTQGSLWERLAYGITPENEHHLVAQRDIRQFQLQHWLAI
dopamine transporter, sequence (Q01959 whole entry): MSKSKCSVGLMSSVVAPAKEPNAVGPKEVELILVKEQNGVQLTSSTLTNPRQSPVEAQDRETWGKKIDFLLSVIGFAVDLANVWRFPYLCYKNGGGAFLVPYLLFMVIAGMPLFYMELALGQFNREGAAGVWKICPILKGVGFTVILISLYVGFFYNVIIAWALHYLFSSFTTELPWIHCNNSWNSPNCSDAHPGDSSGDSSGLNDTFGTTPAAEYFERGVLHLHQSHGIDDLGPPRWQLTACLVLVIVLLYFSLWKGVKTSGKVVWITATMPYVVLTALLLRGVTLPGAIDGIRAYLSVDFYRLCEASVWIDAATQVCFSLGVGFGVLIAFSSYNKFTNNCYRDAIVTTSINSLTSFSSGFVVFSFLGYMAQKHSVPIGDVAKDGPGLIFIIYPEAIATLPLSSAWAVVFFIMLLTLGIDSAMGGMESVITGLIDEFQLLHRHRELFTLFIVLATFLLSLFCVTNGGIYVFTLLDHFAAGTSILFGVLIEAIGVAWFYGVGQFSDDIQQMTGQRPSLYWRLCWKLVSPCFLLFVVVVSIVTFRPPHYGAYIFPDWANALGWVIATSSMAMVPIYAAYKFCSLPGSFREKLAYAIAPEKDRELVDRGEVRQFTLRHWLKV
DAT, sequence (Q01959 whole entry): as above
T2 sequence (P31645 whole entry): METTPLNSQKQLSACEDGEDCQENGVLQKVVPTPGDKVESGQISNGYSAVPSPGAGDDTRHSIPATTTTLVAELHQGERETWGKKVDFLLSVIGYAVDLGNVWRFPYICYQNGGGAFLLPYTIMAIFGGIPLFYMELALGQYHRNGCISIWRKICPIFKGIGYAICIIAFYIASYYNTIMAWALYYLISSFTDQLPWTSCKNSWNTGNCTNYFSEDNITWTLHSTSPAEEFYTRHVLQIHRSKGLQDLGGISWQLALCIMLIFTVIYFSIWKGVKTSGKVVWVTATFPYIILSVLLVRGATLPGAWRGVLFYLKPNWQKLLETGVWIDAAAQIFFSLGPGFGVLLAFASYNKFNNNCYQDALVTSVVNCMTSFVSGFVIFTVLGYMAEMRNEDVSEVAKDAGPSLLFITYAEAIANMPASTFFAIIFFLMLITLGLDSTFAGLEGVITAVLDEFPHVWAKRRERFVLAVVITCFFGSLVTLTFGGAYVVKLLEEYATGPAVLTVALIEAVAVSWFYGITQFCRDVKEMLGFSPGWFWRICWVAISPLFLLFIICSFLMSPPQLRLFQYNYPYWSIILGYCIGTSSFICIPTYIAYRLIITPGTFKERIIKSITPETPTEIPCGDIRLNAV

For the compound `O[C@@H](CN1CCC[C@H](COc2ccc(C(F)(F)F)cc2)C1)C1(c2ccc(Cl)cc2)CCC1` [compound 125, 1R-1-[1-(4-Chloro-phenyl)-cyclobutyl]-2-[(3S)-3-(4-trifluoromethyl-phenoxymethyl)-piperidin-1-yl]-ethanol], the results for the IC50 in [1], in data set [4] and in data set [5] were under 10 nM, under 100 nM and under 1000 nM, respectively. In addition, the “tolerability and mortality after 72 h” value in data set [2] (30 mg/kg i.v.) and in [8] (30 mg/kg i.v.) was “well tolerated” in each case. Besides, the “% variation of the total duration of immobility” value (“% variation” below) in data set [3] (10 mg/kg i.p., 1 h before test) was 55%; in data set [6] (2.5 mg/kg) it was 12%. Moreover, the EC50 in [7] is under 1000 nM; in data set [9] it was under 1000 nM; in data set [10], under 10 nM.
For the compound `O[C@@H](CN1CCC[C@@H](COc2ccc(C(F)(F)F)cc2)C1)C1(c2ccc(Cl)cc2)CCC1` [compound 127, 1S-1-[1-(4-Chloro-phenyl)-cyclobutyl]-2-[(3R)-3-(4-trifluoromethyl-phenoxymethyl)-piperidin-1-yl]-ethanol], the IC50 is under 10 nM in data set [1], under 100 nM in data set [4] and over 1000 nM in data set [5]. The “tolerability and mortality after 72 h” value in data set [2] (30 mg/kg i.v.) and in [8] (30 mg/kg i.v.) was “well tolerated” each time. Moreover, the “% variation” value is on record as 25% in data set [3] (2.5 mg/kg i.p., 1 h before test); 67% in [3] (10 mg/kg i.p., 1 h before test); 14% in [6] (1.0 mg/kg); 39% in data set [6] (2.0 mg/kg); 39% in data set [6] (2.5 mg/kg); 64% in data set [6] (3.0 mg/kg). In data set [6] (2.5 mg/kg), the “effectiveness (statistically significant variation >30%)” value is “effective”. In addition, the EC50 in data set [7] was over 1000 nM; in data set [9] it was under 1000 nM; in [10], under 10 nM.
Turning to `CN1Cc2c(N)cccc2C(c2ccccc2)C1` (stereo not drawn) [nomifensine, reference compound], in [3] (rat, in vivo), the “% variation” value came to 78%.
Regarding `OC[C@H]1[C@@H](COc2ccc(C(F)(F)F)cc2)CCCN1CC1(c2ccc(Cl)cc2)CCC1` (single isomer, unassigned) [compound 132, cis-[1-[1-(4-chloro-phenyl)-cyclobutylmethyl]-3-(4-trifluoromethyl-phenoxymethyl)-piperidin-2-yl]-methanol], the values for the IC50 in data set [1], in [4] and in data set [5] were under 10 nM, under 100 nM and under 1000 nM, respectively. Besides, the “tolerability and mortality after 72 h” value in data set [2] (30 mg/kg i.v.) and in data set [8] (30 mg/kg i.v.) was “well tolerated” throughout.
As for `FC(F)(F)c1ccc(COC[C@H]2CCCN(CC3(c4ccc(Cl)cc4)CCC3)C2)cc1` [compound 129, S-1-[1-(4-Chloro-phenyl)-cyclobutylmethyl]-3-(4-trifluoromethyl-benzyloxymethyl)-piperidine], the results for the IC50 in data set [1], in [4] and in [5] were under 10 nM, under 100 nM and over 1000 nM, respectively. Moreover, the “tolerability after 72 h” value in data set [2] (20 mg/kg i.v.) was “well tolerated”. The EC50 in data set [7] is under 100 nM; in data set [9] it was under 100 nM; in data set [10] it was under 10 nM. For the same compound, the “tolerability and mortality after 72 h” value in data set [8] (30 mg/kg i.v.) is on record as “well tolerated”.
As to `OC(CN1CCCC(CCc2ccccc2)C1)c1ccc(Cl)cc1` (single isomer, unassigned) [compound 143, 1-(4-Chloro-phenyl)-2-(3-phenethyl-piperidin-1-yl)-ethanol], the IC50 in [1] is under 100 nM; in data set [4] it was under 100 nM; in data set [5] it was under 10 nM. Moreover, the “tolerability and mortality after 72 h” value in data set [2] (5 mg/kg i.v.) and in [8] (5 mg/kg i.v.) was “tolerated” throughout.
Consider `OC[C@H]1[C@@H](COc2ccc(C(F)(F)F)cc2)CCCN1CC1(c2ccc(Cl)cc2)CCC1` (single isomer, unassigned) [compound 131, cis-[1-[1-(4-chloro-phenyl)-cyclobutylmethyl]-3-(4-trifluoromethyl-phenoxymethyl)-piperidin-2-yl]-methanol], for which the results for the IC50 in data set [1], in [4] and in data set [5] were under 100 nM, under 1000 nM and under 1000 nM, respectively. Besides, the “tolerability and mortality after 72 h” value in [2] (30 mg/kg i.v.) and in data set [8] (30 mg/kg i.v.) was “well tolerated” each time.
On to `FC(F)(F)c1ccc(COC[C@@H]2CCCN(CC3(c4ccc(Cl)cc4)CCC3)C2)cc1` [compound 130, R-1-[1-(4-Chloro-phenyl)-cyclobutylmethyl]-3-(4-trifluoromethyl-benzyloxymethyl)-piperidine], for which the IC50 in data set [1] is under 100 nM; in data set [4], under 1000 nM; in data set [5], under 1000 nM. Moreover, the “tolerability and mortality after 72 h” value in [2] (30 mg/kg i.v.) and in [8] (30 mg/kg i.v.) was “well tolerated” throughout. Further, the EC50 is over 1000 nM in data set [7], under 100 nM in data set [9] and under 10 nM in data set [10].
